Laboratory results published in US20230127046A1, “G9a INHIBITOR” (RIKEN, priority 2019, published 2023).

Target: T1, recombinant human G9a protein (Homo sapiens, UniProt Q96KQ7)
T1 construct: purchased BPS Bioscience Inc. #51001
T1 sequence (Q96KQ7 785-1210 limits assumed): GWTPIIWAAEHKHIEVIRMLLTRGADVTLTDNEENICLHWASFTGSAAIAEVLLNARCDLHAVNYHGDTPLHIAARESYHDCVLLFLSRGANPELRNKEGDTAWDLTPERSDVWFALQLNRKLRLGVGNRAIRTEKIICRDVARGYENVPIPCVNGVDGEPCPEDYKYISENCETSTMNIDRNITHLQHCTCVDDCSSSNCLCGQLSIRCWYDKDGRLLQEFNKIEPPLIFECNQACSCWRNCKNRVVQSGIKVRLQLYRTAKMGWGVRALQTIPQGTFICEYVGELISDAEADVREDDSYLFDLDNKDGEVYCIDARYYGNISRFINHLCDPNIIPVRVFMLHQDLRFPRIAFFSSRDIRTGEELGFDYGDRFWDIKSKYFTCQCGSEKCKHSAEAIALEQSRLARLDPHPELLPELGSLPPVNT
Assay: G9a inhibitory activity test (ALPHA)
Format: biochemical
Conditions: biotinylated histone H3 peptide (1-21), SAM, read-out: Inhibitory activity (G9a IC50 value)
Outline: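 Human G9a (0.05 to 0.1 nM) in Tris pH 9.0 buffer preincubated with compound 10 min, then biotinylated histone H3 (1-21) peptide and SAM mixed 1:1 from 500 nM and 150 μM solutions, 1 h at room temperature. H3K9me2 detected by AlphaLISA acceptor/streptavidin donor beads; IC50 from percent inhibition relative to no-compound and no-enzyme controls.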

Structure (SMILES) | IC50
CCCCC(NC(=O)c1[nH]c2c(c1C)C(=O)CC(C)(C)C2)C(=O)Nc1ccccc1C(F)(F)F (stereo not drawn) [Example 1-27] | ≥ 200 nM
CCCCC(NC(=O)c1[nH]c2c(c1C)C(=O)CC(C)(C)C2)C(=O)Nc1ccccc1SCC (stereo not drawn) [Example 1-16] | 50 to 200 nM
CCCCC(NC(=O)c1[nH]c2c(c1C)C(=O)CC(C)(C)C2)C(=O)Nc1cncc2ccccc12 (stereo not drawn) [Example 1-15] | ≥ 200 nM
CCCCC(NC(=O)c1[nH]c2c(c1C)C(=O)CC(C)(C)C2)C(=O)Nc1cccc2c1CCC2 (stereo not drawn) [Example 1-34] | ≥ 200 nM
CCc1nc(C)ccc1NC(=O)C(CCC1CC1)NC(=O)c1[nH]c2c(c1C)C(=O)CC(C)(C)C2 (stereo not drawn) [Example 1-75] | ≥ 200 nM
CCCCC(NC(=O)c1[nH]c2c(c1C)C(=O)CC(C)(C)C2)C(=O)NCc1cccc(Cl)c1 (stereo not drawn) [Example 1-42] | ≥ 200 nM
CCCCC(NC(=O)c1[nH]c2c(c1C)C(=O)CC(C)(C)C2)C(=O)Nc1cc(OC)c(OC)c(OC)c1 (stereo not drawn) [Example 1-109] | ≥ 200 nM
CCCCC(NC(=O)c1[nH]c2c(c1C)C(=O)CC(C)(C)C2)C(=O)Nc1ccccc1OC (stereo not drawn) [Example 1-11] | ≥ 200 nM
Cc1ccc2c(c1)CCN2C(=O)C(CCC1CC1)NC(=O)c1[nH]c2c(c1C)C(=O)CC(C)(C)C2 (stereo not drawn) [Example 1-77] | ≥ 200 nM
CCCCC(NC(=O)c1[nH]c2c(c1C)C(=O)CC(C)(C)C2)C(=O)Nc1ccccc1C(C)C (stereo not drawn) [Example 1-12] | ≥ 200 nM
CCCCC(NC(=O)c1[nH]c2c(c1C)C(=O)CC(C)(C)C2)C(=O)Nc1ccc(C#N)cc1 (stereo not drawn) [Example 1-9] | ≥ 200 nM
COc1ccc(NC(=O)C(CCC2CC2)NC(=O)c2[nH]c3c(c2C)C(=O)CC(C)(C)C3)cc1 (stereo not drawn) [Example 1-63] | 50 to 200 nM
Cc1c(C(=O)NC(CCC2CC2)C(=O)Nc2ccncc2)[nH]c2c1C(=O)CC(C)(C)C2 (stereo not drawn) [Example 1-73] | ≥ 200 nM
CCCCC(NC(=O)c1[nH]c2c(c1C)C(=O)CC(C)(C)C2)C(=O)NCc1cccc2ccccc12 (stereo not drawn) [Example 1-49] | ≥ 200 nM
CCCCC(NC(=O)c1[nH]c2c(c1C)C(=O)CC(C)(C)C2)C(=O)NCc1ccccc1 (stereo not drawn) [Example 1-39] | ≥ 200 nM
CCCCC(NC(=O)c1[nH]c2c(c1C)C(=O)CC(C)(C)C2)C(=O)Nc1ccc2[nH]ncc2c1 (stereo not drawn) [Example 1-91] | ≥ 200 nM

Same assay, conditions: read-out: Inhibitory activity (G9a IC50)

Structure (SMILES) | IC50
CCCCC(NC(=O)c1[nH]c2c(c1C)C(=O)CC(C)(C)C2)C(=O)Nc1ccc(N)cc1 (stereo not drawn) [Example 21, N-[1-(4-aminoanilino)-1-oxohexan-2-yl]-3,6,6-trimethyl-4-oxo-5,7-dihydro-1H-indole-2-carboxamide] | ≥ 200 nM
CCCC[C@H](NC(=O)c1[nH]c2c(c1C)C(=O)CC(C)(C)C2)c1nc2ccc(OCCN3CCOCC3)cc2[nH]1 [Example 37-2] | ≥ 200 nM
Cc1c(C(=O)NC(CCC2CC2)C(=O)Nc2ccc(C(F)(F)F)nc2)[nH]c2c1C(=O)CC(C)(C)C2 (stereo not drawn) [Example 6-8] | 50 to 200 nM
CCc1ccc(NC(=O)C(CCC2CC2)NC(=O)c2ccc(Nc3ccncc3)cc2)cn1 (stereo not drawn) [Example 6-86] | < 50 nM
Cc1c(C(=O)NC(CCC2CC2)C(=O)N2CCc3cc(O)ccc32)[nH]c2c1C(=O)CC(C)(C)C2 (stereo not drawn) [Example 1-132] | ≥ 200 nM
CCCCC(NC(=O)c1[nH]c2c(c1C)C(=O)CC(C)(C)C2)C(=O)Nc1ccc(OCCNC)nc1 (stereo not drawn) [Example 24-1, 3,6,6-trimethyl-N-[1-[[6-[2-(methylamino)ethoxy]pyridin-3-yl]amino]-1-oxohexan-2-yl]-4-oxo-5,7-dihydro-1H-indole-2-carboxamide] | 50 to 200 nM
Cc1c(C(=O)NC(CCC2CC2)c2nc3cccc(C)c3n2C)[nH]c2c1C(=O)CC(C)(C)C2 (stereo not drawn) [Example 30-2] | 50 to 200 nM
Cc1c(C(=O)NC(CCC2CC2)C(=O)N2CCc3cc(OCCN4CCCCC4)ccc32)[nH]c2c1C(=O)CC(C)(C)C2 (stereo not drawn) [Example 1-135] | 50 to 200 nM
CCCCC(NC(=O)c1ccc(Nc2ccncc2)cc1)C(=O)Nc1ccc(OC2CCN(C)CC2)nc1 (stereo not drawn) [Example 11-5] | < 50 nM
COc1ccc(NC(=O)C(CCC2CC2)NC(=O)c2ccc(Nc3ccncc3)cc2OC)cn1 (stereo not drawn) [Example 6-79] | < 50 nM
CCCC[C@H](NC(=O)c1[nH]c2c(c1C)C(=O)CC(C)(C)C2)c1nc2ccc(OCCN3CCCC3)cc2[nH]1 [Example 37-3] | ≥ 200 nM
Cc1c(C(=O)N[C@@H](CCC2CC2)C(=O)Nc2ccc(C#N)cc2)[nH]c2c1C(=O)CC(C)(C)C2 [Example 15-1, N-[(2S)-1-(4-cyanoanilino)-4-cyclopropyl-1-oxobutan-2-yl]-3,6,6-trimethyl-4-oxo-5,7-dihydro-1H-indole-2-carboxamide] | < 50 nM
CC(C)c1c(C(=O)NC(CCC2CC2)C(=O)N2CCc3c(OCCN(C)C)cccc32)[nH]c2c1C(=O)CC(C)(C)C2 (stereo not drawn) [Example 1-142] | 50 to 200 nM
CCCC[C@H](NC(=O)c1[nH]c2c(c1C)C(=O)CC(C)(C)C2)C(=O)N1CCc2c(OCCN(C)C)cccc21 [Example 6-102] | ≥ 200 nM
CCCCC(NC(=O)c1ccc(Nc2ccncc2)cc1)C(=O)Nc1ccc(OC)cc1 (stereo not drawn) [Example 9-2] | 50 to 200 nM
CCCC[C@H](NC(=O)c1[nH]c2c(c1C)C(=O)CC(C)(C)C2)C(=O)NCc1ccc(N2CCN(CCCC)CC2)cc1 [Example 22-5] | 50 to 200 nM
Cc1c(C(=O)NC(CCC2CC2)c2nc3cc(CO)ccc3n2C)[nH]c2c1C(=O)CC(C)(C)C2 (stereo not drawn) [Example 33, N-[3-cyclopropyl-1-[5-(hydroxymethyl)-1-methylbenzoimidazol-2-yl]propyl]-3,6,6-trimethyl-4-oxo-5,7-dihydro-1H-indole-2-carboxamide] | ≥ 200 nM
CCCC[C@H](NC(=O)c1[nH]c2c(c1C)C(=O)CC(C)(C)C2)C(=O)N1CCc2c(OC3CCN(C)CC3)cccc21 [Example 6-106] | ≥ 200 nM
CCCCC(NC(=O)c1[nH]c2c(c1C)C(=O)CC(C)(C)C2)C(=O)NCc1ccc(C(=O)N(C)C)cc1 (stereo not drawn) [Example 20-2] | ≥ 200 nM

Structure (SMILES) | IC50
CCCCC(NC(=O)c1[nH]c2c(c1C)C(=O)CC(C)(C)C2)C(=O)Nc1ccc(N2CCC3(CNC3)C2)nc1 (stereo not drawn) [Example 27] | 50 to 200 nM
CCCCC(NC(=O)c1[nH]c2c(c1C)C(=O)CC(C)(C)C2)C(=O)Nc1ccccc1CN(C)C (stereo not drawn) [Example 5-3] | ≥ 200 nM
Cc1c(C(=O)NC(CCC2CC2)C(=O)N2CCc3cc(CN(C)C)ccc32)[nH]c2c1C(=O)CC(C)(C)C2 (stereo not drawn) [Example 1-125] | ≥ 200 nM
CCCCC(NC(=O)c1[nH]c2c(c1C)C(=O)CC(C)(C)C2)C(=O)NCc1ccc(CCCN)cc1 (stereo not drawn) [Example 19, N-[1-[[4-(3-aminopropyl)phenyl]methylamino]-1-oxohexan-2-yl]-3,6,6-trimethyl-4-oxo-5,7-dihydro-1H-indole-2-carboxamide] | < 50 nM
CCCCC(NC(=O)c1[nH]c2c(c1C)C(=O)CC(C)(C)C2)C(=O)Nc1ccnc2ccccc12 (stereo not drawn) [Example 9-1, 3,6,6-trimethyl-4-oxo-N-[1-oxo-1-(quinolin-4-ylamino)hexan-2-yl]-5,7-dihydro-1H-indole-2-carboxamide] | ≥ 200 nM
CCCCC(NC(=O)c1cc(S(N)(=O)=O)ccc1OC)C(=O)Nc1ccc(OC2CCN(C)CC2)nc1 (stereo not drawn) [Example 6-96] | ≥ 200 nM
Cc1c(C(=O)NC(CCC2CC2)C(=O)N2CCc3cc(CN4CCCCC4)ccc32)[nH]c2c1C(=O)CC(C)(C)C2 (stereo not drawn) [Example 1-129] | ≥ 200 nM
CCc1c(C(=O)NC(CCC2CC2)C(=O)N2CCc3c(OCCN(C)C)cccc32)[nH]c2c1C(=O)CC(C)(C)C2 (stereo not drawn) [Example 1-141] | 50 to 200 nM
CCCCC(NC(=O)c1[nH]c2c(c1C)C(=O)CC(C)(C)C2)C(=O)Nc1ccc2c(c1)CCNC2 (stereo not drawn) [Example 25-2] | 50 to 200 nM
Cc1c(C(=O)NC(CCC2CC2)C(=O)N2CCc3cc(CN4CCCC4)ccc32)[nH]c2c1C(=O)CC(C)(C)C2 (stereo not drawn) [Example 1-127] | 50 to 200 nM
CCCC[C@H](NC(=O)c1[nH]c2c(c1C)C(=O)CC(C)(C)C2)C(=O)NCc1ccc(N2CCN(CCO)CC2)cc1 [Example 23, (S)-N-(1-((4-(4-(2-hydroxyethyl)piperazin-1-yl)benzyl)amino)-1-oxohexan-2-yl)-3,6,6-trimethyl-4-oxo-4,5,6,7-tetrahydro-1H-indole-2-carboxamide] | ≥ 200 nM
COc1ccc(NC(=O)C(CCC2CC2)NC(=O)c2ccc(Nc3ccncc3)cn2)cn1 (stereo not drawn) [Example 6-76] | ≥ 200 nM
Cc1c(C(=O)NC(CCC2CC2)c2nc3c(CN4CCN(C)CC4)cccc3n2C)[nH]c2c1C(=O)CC(C)(C)C2 (stereo not drawn) [Example 31-6] | ≥ 200 nM
CCCCC(NC(=O)Cc1ccc(C)cc1)C(=O)Nc1ccc(OC2CCN(C)CC2)nc1 (stereo not drawn) [Example 11-8] | ≥ 200 nM
CCCC[C@H](NC(=O)c1[nH]c2c(c1C)C(=O)CC(C)(C)C2)C(=O)NC(c1ccccc1)C(C)C (stereo partly drawn) [Example 6-47] | < 50 nM
COc1ccc(NC(=O)C(CCC2CC2)NC(=O)c2ccc(C3CCNCC3)cc2)cn1 (stereo not drawn) [Example 28, N-[4-cyclopropyl-1-[(6-methoxypyridine-3-yl)amino]-1-oxobutan-2-yl]-4-piperidin-4-ylbenzamide] | < 50 nM
CCCC[C@H](NC(=O)c1[nH]c2c(c1C)C(=O)CC(C)(C)C2)C(=O)N[C@H](C)c1ccccc1 [Example 2-3] | 50 to 200 nM
CCCCC(NC(=O)c1[nH]c2c(c1C)C(=O)CC(C)(C)C2)C(=O)Nc1ccc(C)cc1CC (stereo not drawn) [Example 14-2] | < 50 nM
CCCC[C@H](NC(=O)c1[nH]c2c(c1C)C(=O)CC1(CCCCC1)C2)C(=O)N[C@@H](C)c1ccccc1 [Example 6-43] | ≥ 200 nM
